Measurements published in patent US20250290117A1, “MOLECULAR PHENOTYPIC ANTIMICROBIAL SUSCEPTIBILITY TESTING” (priority 2024, published 2025).

How the values were obtained:
[1] = test system: pathogens of clinical samples; assay: Molecular phenotypic antimicrobial susceptibility test of clinical samples, direct PCR without a separate DNA purification step (Table 6); format: cell-based
Protocol: (§1) Detection of Molecular Phenotypic Antimicrobial Susceptibility. Disclosed herein are the methods for the detection of phenotypic antimicrobial susceptibility via molecular methods. The present invention describes how a specimen 100 with a known microbial load is incubated and then exposed to a panel of antimicrobial agents to determine sensitivity (prevention of growth) or resistance (allowance of growth) to the specific antimicrobial agents tested utilizing molecular methods.
(§2) Sample Collection. Specimens 100 are collected from patients using sterile collection processes that are employed in routine clinical care. Specimens are transported to the testing facility in boric acid preservative.
(§3) Preparation of the Specimens for Testing. […] The process for pathogen isolation includes steps of harvesting the pathogen (e.g., via centrifugation), isolating pathogen DNA via a DNA isolation and/or purification kit, and performing PCR on the pathogen DNA via PCR components (e.g., primers, enzymes, buffers) as would be known to the skilled artisan. […] This aliquot is used for antimicrobial susceptibility testing if indicated based on the pathogen detection results. […] Specimens 100 with lower pathogen loads could also be utilized in the antibiotic susceptibility phase of testing with or without a longer incubation period.
(§4) Preparation of Antimicrobial Susceptibility Testing Plates. Antimicrobial solutions are prepared at known concentrations. The specific antimicrobials and their concentrations are selected based on the pathogen of interest and the described antimicrobial resistance breakpoints for that specimen pathogen and antimicrobial combination. These antimicrobials have been selected based on those commonly utilized by healthcare providers in routine clinical care for the specific type of suspected infection. The number and types of antimicrobials utilized can be customized based on the infection source, pathogen detected, patient-specific factors such as allergies or other health conditions (e.g., chronic kidney disease or concurrent medication use), or healthcare provider preferences such as antimicrobial availability or cost.
(§5) The antimicrobial solutions are prepared in liquid culture media (such as Muller Hinton Broth) to achieve the desired antimicrobial concentration and are then stored at −80° C. until use. For a given specimen, each antimicrobial is tested at a single or multiple antimicrobial concentration(s) which is its established breakpoints for sensitivity. The antimicrobial solutions are prepared and plated out for each specific pathogen. […] This allows for evaluation of pathogen load when no antimicrobial is present.
(§6) Specimen Exposure to Antimicrobial Agents. The 1 mL aliquot of the specimen 100 previously mixed with culture media and incubated is obtained. Using optical density measurements as a guide, the specimen 100 is diluted to 0.5 McFarland.
(§7) Antimicrobial exposure plates are typically placed into an incubator for 12-16 hours.
(§8) Nucleic Acid Amplification of Antimicrobial Agent Exposed Pathogens. The antimicrobial exposure plate is removed after the period of incubation. The specimen then undergoes a purification or lysis step. For example, the specimen may undergo a purification step (e.g., magnetic bead-based or other separation protocol to isolate genetic material). In another example, the specimen may undergo a cell lysis step. For example, buffer (e.g., lysis buffer) may be added and incubated in the thermal cycler for preparation for direct PCR. Next, the specimen may undergo a polymerase chain reaction (PCR) testing protocol, whereby a semi-quantitative PCR method is utilized. This may be completed either with or without a specific extraction protocol step. The pathogens can be individually targeted and detected, or a universal genetic sequence can be utilized to detect the antimicrobial susceptibility of the specimen as a whole.

[2] = test system: pathogens of clinical samples; assay: Molecular phenotypic antimicrobial susceptibility test of clinical samples, extraction DNA purification step prior to PCR (Table 6); format: cell-based
Protocol: as §1, §2, §3, §4, §5, §6, §7, §8

[3] = E. faecalis, clinical sample of r93-r99
[4] = E. faecalis, clinical sample of r93-r99, Ct control avg 22.011
[5] = E. faecalis, clinical sample of r100-r106
[6] = E. faecalis, clinical sample of r100-r106, Ct control avg 21.027
[7] = E. faecalis, clinical sample of r107-r113
[8] = E. faecalis, clinical sample of r107-r113, Ct control avg 20.529
[9] = E. faecalis, clinical sample of r114-r120
[10] = E. faecalis, clinical sample of r151-r157
[11] = E. faecalis, clinical sample of r151-r157, Ct control avg 18.551
[12] = S. aureus, clinical sample of r85-r92
[13] = S. aureus, clinical sample of r85-r92, Ct control avg 20.309
[14] = E. faecalis, clinical sample of r100-r106, Ct Control Avg 23.073
[15] = E. faecalis, clinical sample of r107-r113, Ct Control Avg 22.144
[16] = E. faecalis, clinical sample of r114-r120, Ct Control Avg 20.822
[17] = E. faecalis, clinical sample of r151-r157, Ct Control Avg 20.56
[18] = E. coli, clinical sample of r10-r24
[19] = E. coli, clinical sample of r158-r172
[20] = K. aerogenes, clinical sample of r136-r150
[21] = K. pneumoniae, clinical sample of r121-r135
[22] = M. morganii, clinical sample of r55-r69
[23] = M. morganii, clinical sample of r70-r84
[24] = P. mirabilis, clinical sample of r25-r39
[25] = P. mirabilis, clinical sample of r40-r54

In the case of `CN[C@H](CC(C)C)C(=O)N[C@H]1C(=O)N[C@@H](CC(N)=O)C(=O)N[C@H]2C(=O)N[C@H]3C(=O)N[C@H](C(=O)N[C@H](C(=O)O)c4cc(O)cc(O)c4-c4cc3ccc4O)[C@H](O)c3ccc(c(Cl)c3)Oc3cc2cc(c3O[C@@H]2O[C@H](CO)[C@@H](O)[C@H](O)[C@H]2O[C@H]2C[C@](C)(N)[C@H](O)[C@H](C)O2)Oc2ccc(cc2Cl)[C@H]1O` [Vancomycin], the “Molecular Antibiotic Susceptibility Result” value [1, 3] is reported as “Sensitive (Antimicrobial wells with pathogen load detected below the control wells (typically >2 cycle thresholds later) may be reported as Sensitive)”, the Ct [1, 4] is reported as 30.062 and the “Molecular Antibiotic Susceptibility Result” value [1, 5] is reported as “sensitive”. For the same molecule, the Ct [1, 6] was 35.563, the “Molecular Antibiotic Susceptibility Result” value [1, 7] was “sensitive” and the Ct [1, 8] was 29.81. For the same molecule, the “Molecular Antibiotic Susceptibility Result” value [1, 9] was “Sensitive (Antimicrobial wells with pathogen load detected below the control wells (typically >2 cycle thresholds later) may be reported as Sensitive)”, the “Molecular Antibiotic Susceptibility Result” value [1, 10] was “Sensitive (Antimicrobial wells with pathogen load detected below the control wells (typically >2 cycle thresholds later) may be reported as Sensitive)” and the Ct [1, 11] was 35.428. The “Molecular Antibiotic Susceptibility Result” value [1, 12] was “Resistant”, the Ct [1, 13] was 21.258 and the “Molecular Antibiotic Susceptibility Result” value [2, 3] was “Sensitive (Antimicrobial wells with pathogen load detected below the control wells (typically >2 cycle thresholds later) may be reported as Sensitive)”. The “Molecular Antibiotic Susceptibility Result” value [2, 5] was “sensitive”, the Ct [2, 14] was 37.981 and the “Molecular Antibiotic Susceptibility Result” value [2, 7] was “sensitive”. The Ct [2, 15] was 32.184, the “Molecular Antibiotic Susceptibility Result” value [2, 9] was “Sensitive (Antimicrobial wells with pathogen load detected below the control wells (typically >2 cycle thresholds later) may be reported as Sensitive)” and the Ct [2, 16] was 34.122. The “Molecular Antibiotic Susceptibility Result” value [2, 10] was “Sensitive (Antimicrobial wells with pathogen load detected below the control wells (typically >2 cycle thresholds later) may be reported as Sensitive)”, the Ct [2, 17] was “Undet” and the “Molecular Antibiotic Susceptibility Result” value [2, 12] was “Resistant”.
With `CN(C)[C@@H]1C(O)=C(C(N)=O)C(=O)[C@@]2(O)C(O)=C3C(=O)c4c(O)cccc4[C@@](C)(O)[C@H]3C[C@@H]12` [Tetracycline] the “Molecular Antibiotic Susceptibility Result” value [1, 18] was “Sensitive (Antimicrobial wells with pathogen load detected below the control wells (typically >2 cycle thresholds later) may be reported as Sensitive)”, the Ct ([1]; E. coli, clinical sample of r10-r24, Ct control avg 12.97) was 26.521 and the “Molecular Antibiotic Susceptibility Result” value [1, 19] was “Sensitive (Antimicrobial wells with pathogen load detected below the control wells (typically >2 cycle thresholds later) may be reported as Sensitive)”. The Ct ([1]; E. coli, clinical sample of r158-r172, Ct control avg 12.894) was 30.717, the “Molecular Antibiotic Susceptibility Result” value [1, 3] was “Resistant” and the Ct [1, 4] was 21.199. For the same molecule, the “Molecular Antibiotic Susceptibility Result” value [1, 5] was “Resistant”, the Ct [1, 6] was 20.684 and the Ct [1, 8] was 28.789. For the same molecule, the “Molecular Antibiotic Susceptibility Result” value [1, 9] was “Resistant”, the Ct ([1]; E. faecalis, clinical sample of r114-r120, Ct control avg 20.909) was 21.446 and the Ct [1, 11] was 21.132. The “Molecular Antibiotic Susceptibility Result” value [1, 20] was “Sensitive (Antimicrobial wells with pathogen load detected below the control wells (typically >2 cycle thresholds later) may be reported as Sensitive)”, the Ct ([1]; K. aerogenes, clinical sample of r136-r150, Ct control avg 13.854) was 30.787 and the “Molecular Antibiotic Susceptibility Result” value [1, 21] was “Sensitive (Antimicrobial wells with pathogen load detected below the control wells (typically >2 cycle thresholds later) may be reported as Sensitive)”. For the same molecule, the Ct ([1]; K. pneumoniae, clinical sample of r121-r135, Ct control avg […]) was 27.163, the “Molecular Antibiotic Susceptibility Result” value [1, 22] was “Resistant” and the Ct ([1]; M. morganii, clinical sample of r55-r69, Ct control avg 12.09) was 9.923. The “Molecular Antibiotic Susceptibility Result” value [1, 23] was “Resistant”, the Ct ([1]; M. morganii, clinical sample of r70-r84, Ct control avg 11.677) was 12.206 and the “Molecular Antibiotic Susceptibility Result” value [1, 24] was “Resistant”. The Ct ([1]; P. mirabilis, clinical sample of r25-r39, Ct control avg 11.801) was 10.301, the “Molecular Antibiotic Susceptibility Result” value [1, 25] was “Resistant” and the Ct ([1]; P. mirabilis, clinical sample of r40-r54, Ct control avg 10.06) was 11.498. For the same molecule, the “Molecular Antibiotic Susceptibility Result” value [1, 12] was “Resistant”, the Ct [1, 13] was 22.653 and the “Molecular Antibiotic Susceptibility Result” value [2, 18] was “Sensitive (Antimicrobial wells with pathogen load detected below the control wells (typically >2 cycle thresholds later) may be reported as Sensitive)”. The Ct ([2]; E. coli, clinical sample of r10-r24, Ct Control Avg 18.112) was 28.574, the “Molecular Antibiotic Susceptibility Result” value [2, 19] was “Sensitive (Antimicrobial wells with pathogen load detected below the control wells (typically >2 cycle thresholds later) may be reported as Sensitive)” and the Ct ([2]; E. coli, clinical sample of r158-r172, Ct Control Avg 20.146) was 34.28. For the same molecule, the “Molecular Antibiotic Susceptibility Result” value [2, 3] was “Resistant”, the Ct ([2]; E. faecalis, clinical sample of r93-r99, Ct Control Avg 22.987) was 19.484 and the “Molecular Antibiotic Susceptibility Result” value [2, 5] was “Resistant”. For the same molecule, the Ct [2, 14] was 23.171, the Ct [2, 15] was 28.949 and the “Molecular Antibiotic Susceptibility Result” value [2, 9] was “Resistant”. The Ct [2, 16] was 21.77, the Ct [2, 17] was 23.723 and the “Molecular Antibiotic Susceptibility Result” value [2, 20] was “Sensitive (Antimicrobial wells with pathogen load detected below the control wells (typically >2 cycle thresholds later) may be reported as Sensitive)”. The Ct ([2]; K. aerogenes, clinical sample of r136-r150, Ct Control Avg 19.994) was 37.04, the “Molecular Antibiotic Susceptibility Result” value [2, 21] was “Sensitive (Antimicrobial wells with pathogen load detected below the control wells (typically >2 cycle thresholds later) may be reported as Sensitive)” and the Ct ([2]; K. pneumoniae, clinical sample of r121-r135, Ct Control Avg 24.272) was 30.426. The “Molecular Antibiotic Susceptibility Result” value [2, 22] was “Resistant”, the Ct ([2]; M. morganii, clinical sample of r55-r69, Ct Control Avg 28.86) was 26.617 and the “Molecular Antibiotic Susceptibility Result” value [2, 23] was “Sensitive (Antimicrobial wells with pathogen load detected below the control wells (typically >2 cycle thresholds later) may be reported as Sensitive)”. The “Molecular Antibiotic Susceptibility Result” value [2, 24] was “Resistant”, the Ct ([2]; P. mirabilis, clinical sample of r25-r39, Ct Control Avg 26.064) was 24.94 and the “Molecular Antibiotic Susceptibility Result” value [2, 25] was “Resistant”. The Ct ([2]; P. mirabilis, clinical sample of r40-r54, Ct Control Avg 26.987) was 23.424, the “Molecular Antibiotic Susceptibility Result” value [2, 12] was “Resistant” and the Ct ([2]; S. aureus, clinical sample of r85-r92, Ct Control Avg 24.32) was 15.029.
